# According to article PMC8058733, “A pain killer without analgesic tolerance designed by co-targeting PSD-95-nNOS interaction and α2-containning GABAARs” (Theranostics, 2021):
# Experiments:
# α5β3γ2 GABAARs = experiment: Potentiation of GABA-evoked currents, whole-cell patch-clamp in HEK293 cells transiently expressing recombinant GABAARs; format: cell-based
# [1] = test system: SNL-induced mechanical hyperalgesia; experiment: SNL-induced mechanical hyperalgesia, von Frey; format: in vivo, mice
# Experimental: Neuropathic pain was induced by segmental spinal nerve ligation (SNL). Animals were anesthetized with isoflurane. After the loss of righting reflex, the animal was fixed in the prone position. The SNL model was prepared as described previously: a median skin incision with about 3-5 cm length in L4-S2 level of the mouse back was made, the muscles next to the vertebrae till the sixth lumbar protruding were separated, the L5/L6 joint protruding on the right side was exposed and excised, and L6 processus transversus was partially split so that the L4-L6 spinal nerves on the right side were exposed. L5 nerve was gently isolated and tightly ligated with 5-0 silk thread. The wound was closed with 4-0 silk thread suture and covered with iodine solution. After nerve ligation, animals with signs of paw clonus or autotomy were excluded from further experiments.
# For mice, the threshold for 50% PWT response to mechanical stimulus was quantified by assessing the paw withdrawal threshold using von Frey filaments (Touch-Test TM Sensory Evaluator, North coast Medical, Inc.). Mice were placed individually in a plastic cage (4.5 × 5 × 11 cm) with a wire mesh bottom which allowed full access to the paws. Behavioral accommodation was allowed for 20-30 min until cage exploration and major grooming activities ceased. Mechanical threshold was measured by applying a von Frey filament to the ventral surface of the right hind paw until a positive sign of pain behavior was elicited. The paradigm for assessing the threshold was as follows. Von Frey filaments with logarithmically incremental stiffness (0.02-2 g) were applied serially to the paw by the up-down method. The filaments were presented, in ascending order of strength, perpendicular to the plantar surface with sufficient force to causes light bending against the paw and held for 4s. A positive response was noted if the paw was sharply withdrawn. Flinching immediately upon removal of the hair was also considered a positive response. The 2-g filament was selected as the upper limit cut-off for testing. If there was no response at 2-g filament, animals were assigned this cut-off value. The pattern of positive and negative withdrawal responses was converted to 50% threshold according to the formula: 50% PWT = 10 log (X) + κδ. X = value (in log unit) of the final von Frey hair used; κ is correction factors based on the pattern of responses from the calibration table; δ = mean difference in log units between stimuli (here, 0.224).
# [2] = test system: laminae I excitatory neurons in the SDH; experiment: mIPSCs/mEPSCs recordings from acute spinal slices of chronically treated rats; format: in vivo, rat; conditions: rats, ZL006-05 0.3 mg/d intrathecal infusion ×11 d
# Text: Osmotic minipumps (models 1004 for mouse and 2ML4 for rat; Alzet) and intrathecal cannulas (0.61 mm outer diameter and 0.28 mm inner diameter for mouse, 0.99 mm outer diameter and 0.58 mm inner diameter for rat) were filled with a solution of PBS. Cannulas were inserted into the subarachnoid space through the space between the L5 and L6 vertebrae and the tip of the catheter was implanted at the L5 spinal segmental level.
# All solutions were bubbled with 95% O2 -5% CO2.
# For mPSCs measurements, whole-cell recordings were made from putative excitatory neurons in superficial dorsal horn using low-resistance pipettes (4-8 MΩ). Before mPSCs measurements, excitatory neurons were distinguished from inhibitory neurons by firing pattern analysis according to the established relationship between neuronal firing pattern and its neurotransmitter phenotype, [32]-[34] For mEPSCs measurement, the membrane potential was held at -60 mV. […] Tetrodotoxin (0.5 μM) and bicuculline (20 μM) were added to block action potentials and GABAA receptor-mediated currents respectively. For mIPSCs measurement, the membrane potential was held at -70 mV, microelectrodes were filled with internal pipette solution containing CsCl 140, HEPES 10.0, MgATP 4.0, NaGTP 3.0, EGTA 1.0, MgCl2 1.0, CaCl2 0.3 (in mM). […]. […] Each recording lasts more than 5 min. Data were analyzed using Mini software. Up to 120 events from each neuron were selected at a fixed sampling interval to generate cumulative probability.
# locomotor activity = experiment: Open field test, locomotor activity; format: in vivo; conditions: mice, 1 h after injection, ZL006-05 60 mg/kg, i.v., diazepam 0.5 mg/kg
# Experimental: The locomotor activity was assessed by the open field test as described previously. The apparatus consisted of a large area composed of plastic, surrounded by walls that were 100 cm high. The floor was 50 × 50 cm for mice; the overall illumination was 25 lux. Each animal was gently placed in the center of the open field, and its behavior was videotaped. The distance the animals travelled was measured in a 5-min session using ANY-maze (Stoelting Co., IL, USA). After each trial, the plate was cleaned with 70% EtOH. No stressor was applied to the animals for at least 12 h before the test.
# spatial memory = experiment: Morris water maze task; format: in vivo; conditions: rats; ZL006-05 90 mg/kg/d, i.g.; MK801 0.25 mg/kg/d, i.v.; 6 days
# Experimental: The Morris water maze task was used to exam spatial cognitive performance of rats. A circular swimming pool (Jiliang Neuroscience Inc.) measuring 180 cm in diameter and 48 cm in height was filled with water to a depth of 26 cm at 24 ± 2 °C. Four starting points around the edge of the pool were designated as N, E, S, and W, which divided the pool into four quadrants. A platform, 10 cm in diameter, was located in a constant position in the middle of one quadrant. To render it invisible to the rats, platform was submerged 2.0 cm below the surface of the water. The task for the rats was to escape from the water by locating the hidden platform. Two days before training, the animals were habituated to swimming for 60 s in the pool without a platform. In training session, rats were trained to escape from the water by locating the platform which was above the water with a red flag on it. Then, one block of four trails was given for 6 consecutive days, and on each day, two groups of rats were administrated with MK801 (0.25 mg/kg, i.v.) or vehicle (6 mL/kg, i.v.) 30 minutes before the first trail. Meanwhile, another two groups of rats were treated with ZL006-05 (90 mg/kg, i.g.) or vehicle (6 mL/kg, i.g.) 1 hour before the first trail. […] During retention, the number of crossings of the platform location and the time spent in the target quadrant were measured.
smiles,measurement,setting,value
CC1(C)C2CCC1(C)C(OC(=O)c1ccc(NCc3cc(Cl)cc(Cl)c3O)cc1O)C2 (centres unmarked) [ZL006-05],Effect on α5GABAAR (in words),α5β3γ2 GABAARs,low efficacy on α3GABAAR and α5GABAAR
same,"Analgesic tolerance, mechanical hyperalgesia, 28 days treatment","[1]; SNL mice, ZL006-05 60 mg/kg/d, i.g., × 28 d, pregabalin 30 mg/kg/d",maintained its antinociceptive effect during 28 days treatment
same,"Analgesic tolerance, mechanical hyperalgesia","[1]; SNL nNOS-/- and WT mice, ZL006-05 60 mg/kg/d, i.g., 11 d",caused a remarkable analgesic tolerance in nNOS^-/- mice but not in WT mice
same,Effect on SNL-induced mechanical hyperalgesia,"[1]; mice, ZL006-05 i.g., single administration, 0-12 h",reduced SNL-induced mechanical hyperalgesia
same,mEPSCs,[2],without affecting mEPSCs
same,mIPSCs,[2],significantly increased mIPSCs amplitude
same,"Locomotor activity, distance travelled during 5 min",locomotor activity,had no effect
same,Spatial memory in the Morris water maze task,spatial memory,but not ZL006-05 caused significantly impaired spatial memory
